Data as given in US6479232B1, “Human xenografts for microbicide testing and anatomical modeling” (The Pennsylvania State University, priority 1999, dated 2002).

Key:
[1] = tested on: HPV-11; test: HPV-11 infection of human vaginal xenografts engrafted in immunocompromised mouse, virus pre-treated with candidate microbicide; assay type: in vivo; details: HPV-11 treated with 0.05% SDS at 37° C. for 10 minutes, then placed in lumen of grafts engrafted ten days in immunocompromised mouse
From the text: In this example, human vaginal xenografts were infected with HPV by inoculating the lumen of said vaginal xenografts, engrafted into a non-human host, with HPV-11 stock virus suspensions prepared according to the methods presented in Example 1. […] Furthermore, it is not necessary to traumatize the walls of said grafts during inoculation to precipitate infection.
In experimental samples, candidate microbicides are mixed with HPV in vitro prior to administration of said HPV/candidate microbicide mixture to the lumen of a vaginal xenograft engrafted into a non-human host. In an alternative experimental embodiment, candidate microbicides were pre-administered to the vaginal lumen, before delivery of a pathogenic agent, into the same lumen.
Xenografts are harvested at 70-90 days and are screened for signs of virus replication. Said screening protocols include quantification of morphologic transformations, viral DNA and RNA synthesis, and protein synthesis. In addition, cell-free extracts of infected xenografts are tested by bioassay for the presence of infectious virus using standard procedures for infection and transformation of vaginal epithelium. […]

[2] = tested on: human vaginal xenograft epithelium; test: Survival and morphology of treated epithelium in the human vaginal xenograft; assay type: in vivo; details: grafts receiving virus treated with 0.05% SDS
Procedure: In this example, human vaginal xenografts engrafted for ten days in the subcutaneous space of an immunocompromised mouse were infected with 10 u l of HPV-11, or HPV-11 that had been treated with 0.05% SDS at 37° C. for 10 minutes and then placed in the lumen of the grafts. At varying intervals, the infected human xenografts (or portions thereof) were surgically removed and examined.

[3] = some people; cited from earlier work
[4] = tested on: HPVs; details: cited from earlier work
[5] = tested on: HIV; details: cited from earlier work
[6] = tested on: HSV-2; details: in vitro; cited from earlier work
[7] = tested on: HIV-1; details: in vitro; cited from earlier work
[8] = set-up: species or system mice; details: mouse, in vivo
From the text: While it is not intended the present invention be limited to any specific formulation or dimension of silastic tubing, in one embodiment said silastic tubing was fabricated according to the following method. Tubing (0.078 in. inner diameter by 0.125 in. outer diameter; Dow Corning, Midland, Mich.) was filled with 17β-estradiol (1,3,5[10]-Estratriene-3, 17β) (Sigma Chemical Company, St. Louis, Mo.) mixed 1:3 (w/w) with silastic 382 medical grade elastomer (Dow Coming, St. Louis, Mo.). The mixture was allowed to dry and the tubing cut, in one embodiment, to a size (approximately 2×2×1 mm) which yielded a measurable circulating estradiol concentration of about 150-200 pg/ml in mice. It may be noted that this concentration of estradiol approximates the concentration of estrogen in women during the late follicular phase of the menstrual cycle.

With CCCCCCCCCCCCOS(=O)(=O)[O-].[Na+] [SDS, Sodium Dodecyl Sulfate] the “prevention of virus infection (papillomatous transformation, virus DNA, virus protein)” value [1] was “effectively prevented virus infection”, the “killing of treated epithelium in the vaginal xenograft” value [2] was “did not kill the treated epithelium” and the “morphology of tissues receiving treated virus” value [2] was “stratified squamous epithelium with a morphology analogous to normal in situ vagina”.

In the case of Nonoxynol-9 [N-9], the irritation and ulceration [3] is listed as “may cause irritation and ulceration in some people”, the “inactivation of / effectiveness against HPVs” value [4] is listed as “does not inactivate HPVs” and the “prevention of transmission of HIV to women” value [5] is listed as “has not been proven to prevent transmission”. For the same molecule, the “inactivation of HSV-2” value [6] was “inactivates” and the “inactivation of HIV-1” value [7] was “inactivates”.

With C[C@]12CC[C@@H]3c4ccc(O)cc4CC[C@H]3[C@@H]1CC[C@@H]2O [17β-estradiol, 17β-estradiol (1,3,5[10]-Estratriene-3, 17β)] the circulating estradiol concentration [8] was 150 to 200 pg/mL.
